From patent publication US4112076A, “Epi-daunomycin and epi-adriamycin compounds and method of use” (priority 1975, dated 1978)
In brackets after ≈: the same amount, converted by molar mass. Where two headings read alike, the source gives them in different places.

Assays:
L 1210 leukemia [1] = test: L 1210 leukemia bearing BDF mice, single i.p. treatment on first day; format: in vivo, mouse (BDF); details: for T/C %: single i.p. day 1
Excerpt: Inbread BDF mice were intraperitoneally inoculated with 1×10^5 leukemia cells/mouse and then treated with 3'-4'-epi-6'-hydroxydaunomycin:Single treatment i.p. on the first day.

[2] = tested on: experimental mouse tumors; test: Experimental mouse tumors (overall); format: in vivo; details: mouse, in vivo
Description: The test was carried out on groups of 10 mice (Swiss CD1). The compound under examination was administered intraperitoneally in varying doses to the test animals one day after intraperitoneal inoculation with 1×10^6 tumor cells/mouse.
The above compound was tested in comparison with adriamycin in several in vitro systems and experimental mouse tumors.

Ascites Sarcoma 180 = Ascites Sarcoma 180 in Swiss CD1 mice, i.p.; format: in vivo, mouse (Swiss CD1); details: i.p. one day after inoculation
Description: In Table 5 the activity of 3'-4'-epi-6'-hydroxyadriamycin on Ascites Sarcoma 180 in mice is reported. The test was carried out on groups of 10 mice (Swiss CD1). The compound under examination was administered intraperitoneally in varying doses to the test animals one day after intraperitoneal inoculation with 1×10^6 tumor cells/mouse.
The average survival time is given as percentage of the survival time of untreated animals, which is arbitrarily designated as 100%. The number of long term survivors (LTS) is also reported.

[3] = tested on: Moloney Sarcoma Virus (MSV); test: Formation of foci by Moloney Sarcoma Virus (MSV) in vitro (antiviral action); format: cell-based; details: Fibroblast, 72 h
Description: (§1) The test compound was evaluated on mouse embryo fibroblast (MEF) cultures infected with MSV and on similar uninfected cultures. After a treatment of three days the inhibiting doses (ID50) were evaluated on cell proliferation in uninfected cultures (cytotoxic action) and on MSV foci formation in infected cultures (antiviral action).
^b inhibition of MSV foci formation

[4] = Proliferation of uninfected mouse embryo fibroblast (MEF) cultures (cytotoxic action); format: cell-based; details: mouse, mouse embryo fibroblasts
Description: as §1
^c inhibition of mouse embryo fibroblasts proliferation

Hela cells = test: Cloning efficiency of Hela cells in vitro (colony inhibition); format: cell-based; details: Homo sapiens
Description: After treatment for 2, 8 and 24 hours, Hela cells were seeded (200 cells per plate) and the number of colonies determined 8 days later. The inhibiting dose (ID50) represents the does which produces a 50% inhibition of colonies.
^a cloning efficiency of Hela cells

Gross leukemia = test: Gross leukemia, treatment i.v. on days 1 to 3; format: in vivo, mouse
Excerpt: On Gross leukemia (which is a systemic tumor transplanted i.v.), the increase in the life span of mice treated with the two compounds at equitoxic doses was similar.
Activity of 4-demethoxy-4'-epi-adriamycin
on Gross leukemia. Treatment i.v. on days
Average data of 2 experiments^a.
^a See legends to Table 7.

solid sarcoma 180 = test: Solid sarcoma 180, treatment i.v. on days 1 to 5; format: in vivo, mouse
Excerpt: (§2) Activity of 4-demethoxy-4'-epi-adriamycin on
solid sarcoma 180. Treatment i.v. on days 1 to 5.
Average data of 2 experiments.
^a Tumor weight on day 11, % over untreated controls.

L 1210 leukemia [5] = test: Ascitic leukemia L 1210, treatment i.p. on day 1; format: in vivo, mouse
Excerpt: as §2
(§3) ascitic leukemias. Treatment i.p. on day 1.
(§4) ^a Median survival time, % over untreated controls
(§5) ^b Long term survivors at 60 days

P 388 leukemia = test: Ascitic leukemia P 388, treatment i.p. on day 1; format: in vivo, mouse
Excerpt: as §2, §3, §4, §5

Question: For `COc1cccc2c1C(=O)c1c(O)c3c(c(O)c1C2=O)C[C@@](O)(C(C)=O)C[C@@H]3O[C@H]1C[C@@H](N)[C@@H](O)[C@H](CO)O1` [3'-4'-epi-6'-hydroxydaunomycin, 3',4'-epi-6'-hydroxy-daunomycin], which T/C % (L 1210 leukemia [1]; 7.5 ng/Kg (so in the source)) is on record?
Answer: 150%

Question: What about the T/C % (L 1210 leukemia [1]; 11.5 ng/Kg (so in the source)) of the same molecule?
Answer: 150%

Question: And the T/C % (L 1210 leukemia [1]; 17.25 ng/Kg (so in the source))?
Answer: 150%

Question: What about the in vivo activity (L 1210 leukemia [1]; Table 4) of the same molecule?
Answer: significant in vivo activity

Question: With `COc1cccc2c1C(=O)c1c(O)c3c(c(O)c1C2=O)C[C@@](O)(C(=O)CO)C[C@@H]3O[C@H]1C[C@@H](N)[C@@H](O)[C@H](CO)O1` [3'-4'-epi-6'-hydroxyadriamycin, 3',4'-epi-6'-hydroxy-adriamycin] as the molecule, how does the “activity in experimental tumors” value [2] read?
Answer: active in experimental tumors

Question: What about the “LTS (long term survivors)” value (Ascites Sarcoma 180; 3 ng/Kg (so in the source)) of the same molecule?
Answer: 1/10

Question: And the “T/C % (average survival time, % of untreated)” value (Ascites Sarcoma 180; 3 ng/Kg (so in the source))?
Answer: 123%

Question: What about the “LTS (long term survivors)” value (Ascites Sarcoma 180; 4.5 ng/Kg (so in the source)) of the same molecule?
Answer: 2/10

Question: What about the “T/C % (average survival time, % of untreated)” value (Ascites Sarcoma 180; 4.5 ng/Kg (so in the source)) of the same molecule?
Answer: 226%

Question: What about the “T/C % (average survival time, % of untreated)” value (Ascites Sarcoma 180; 6.7 ng/Kg (so in the source)) of the same molecule?
Answer: 138%

Question: What about the “T/C % (average survival time, % of untreated)” value (Ascites Sarcoma 180; 10.5 ng/Kg (so in the source)) of the same molecule?
Answer: 138%

Question: Which IC50 ([3]; read-out: Antiviral action ID50) does the source give for `COc1cccc2c1C(=O)c1c(O)c3c(c(O)c1C2=O)C[C@@](O)(C(C)=O)C[C@@H]3O[C@H]1C[C@H](N)[C@H](O)[C@H](C)O1` [Daunomycin] here?
Answer: 3 ng/mL (≈ 5.69 nM)

Question: And the CC50 at 72 h ([4]; uninfected MEF, three days treatment, Table 2, read-out: Cytotoxic action ID50)?
Answer: 16 ng/mL (≈ 30.3 nM)

Question: And the IC50 (Hela cells; 2 h, read-out: ID50 (action on Hela cells), 2 hours treatment, Table 1)?
Answer: 17000 ng/mL (≈ 32200 nM)

Question: What about the IC50 (Hela cells; 8 h, read-out: ID50 (action on Hela cells), 8 hours treatment, Table 1) of the same molecule?
Answer: 8500 ng/mL (≈ 16100 nM)

Question: What about the IC50 (Hela cells; 24 h, read-out: ID50 (action on Hela cells), 24 hours treatment, Table 1) of the same molecule?
Answer: 6800 ng/mL (≈ 12900 nM)

Question: For `COc1cccc2c1C(=O)c1c(O)c3c(c(O)c1C2=O)C[C@@](O)(C(=O)CO)C[C@@H]3O[C@H]1C[C@H](N)[C@H](O)[C@H](C)O1` [Adriamycin, adriamycin], which “LTS (long term survivors)” value (Gross leukemia; 3.5 mg/Kg i.v. days 1 to 3) is on record?
Answer: 0/20

Question: And the “T/C % (median survival time, % over untreated controls)” value (Gross leukemia; 3.5 mg/Kg i.v. days 1 to 3)?
Answer: 164%

Question: What about the Toxic deaths (Gross leukemia; 3.5 mg/Kg i.v. days 1 to 3) of the same molecule?
Answer: 0/20

Question: What about the “LTS (long term survivors)” value (Gross leukemia; 4.5 mg/Kg i.v. days 1 to 3) of the same molecule?
Answer: 0/20

Question: And the “T/C % (median survival time, % over untreated controls)” value (Gross leukemia; 4.5 mg/Kg i.v. days 1 to 3)?
Answer: 182%

Question: And the Toxic deaths (Gross leukemia; 4.5 mg/Kg i.v. days 1 to 3)?
Answer: 0/20

Question: What about the “LTS (long term survivors)” value (Gross leukemia; 5.5 mg/Kg i.v. days 1 to 3) of the same molecule?
Answer: 1/10

Question: What about the “T/C % (median survival time, % over untreated controls)” value (Gross leukemia; 5.5 mg/Kg i.v. days 1 to 3) of the same molecule?
Answer: 200%

Question: What about the Toxic deaths (Gross leukemia; 5.5 mg/Kg i.v. days 1 to 3) of the same molecule?
Answer: 1/10

Question: What about the “LTS (long term survivors)” value (Gross leukemia; 6 mg/Kg i.v. days 1 to 3) of the same molecule?
Answer: 0/10

Question: What about the “T/C % (median survival time, % over untreated controls)” value (Gross leukemia; 6 mg/Kg i.v. days 1 to 3) of the same molecule?
Answer: 214%

Question: And the Toxic deaths (Gross leukemia; 6 mg/Kg i.v. days 1 to 3)?
Answer: 3/10

Question: What about the “T/C % (tumor weight on day 11, % over untreated controls)” value (solid sarcoma 180; 2 mg/Kg i.v. days 1 to 5) of the same molecule?
Answer: 22.2%

Question: What about the Toxic deaths (solid sarcoma 180; 2 mg/Kg i.v. days 1 to 5) of the same molecule?
Answer: 3/19

Question: And the “T/C % (tumor weight on day 11, % over untreated controls)” value (solid sarcoma 180; 2.5 mg/Kg i.v. days 1 to 5)?
Answer: 13.5%

Question: What about the Toxic deaths (solid sarcoma 180; 2.5 mg/Kg i.v. days 1 to 5) of the same molecule?
Answer: 11/18

Question: What about the IC50 ([3]; read-out: ID50, inhibition of MSV foci formation) of the same molecule?
Answer: 0.01 ng/mL (≈ 0.0184 nM)

Question: And the CC50 at 72 h ([4]; 72 (hours) treatment, Table 6, read-out: ID50, inhibition of mouse embryo fibroblasts proliferation)?
Answer: 0.026 ng/mL (≈ 0.0478 nM)

Question: What about the “LTS (long term survivors at 60 days)” value (L 1210 leukemia [5]; 2.5 mg/Kg i.p. day 1) of the same molecule?
Answer: 4/11

Question: And the “T/C % (median survival time, % over untreated controls)” value (L 1210 leukemia [5]; 2.5 mg/Kg i.p. day 1)?
Answer: 155%

Question: What about the Toxic deaths (L 1210 leukemia [5]; 2.5 mg/Kg i.p. day 1) of the same molecule?
Answer: 0/11

Question: And the “LTS (long term survivors at 60 days)” value (L 1210 leukemia [5]; 5 mg/Kg i.p. day 1)?
Answer: 1/11

Question: And the “T/C % (median survival time, % over untreated controls)” value (L 1210 leukemia [5]; 5 mg/Kg i.p. day 1)?
Answer: 166%

Question: What about the Toxic deaths (L 1210 leukemia [5]; 5 mg/Kg i.p. day 1) of the same molecule?
Answer: 1/11

Question: What about the “LTS (long term survivors at 60 days)” value (L 1210 leukemia [5]; 10 mg/Kg i.p. day 1) of the same molecule?
Answer: 3/11

Question: And the “T/C % (median survival time, % over untreated controls)” value (L 1210 leukemia [5]; 10 mg/Kg i.p. day 1)?
Answer: 155%

Question: What about the Toxic deaths (L 1210 leukemia [5]; 10 mg/Kg i.p. day 1) of the same molecule?
Answer: 7/11

Question: What about the IC50 (Hela cells; read-out: ID50, cloning efficiency of Hela cells, 8 (hours) treatment, Table 6) of the same molecule?
Answer: 28 ng/mL (≈ 51.5 nM)

Question: What about the IC50 (Hela cells; read-out: ID50, cloning efficiency of Hela cells, 24 (hours) treatment, Table 6) of the same molecule?
Answer: 12.5 ng/mL (≈ 23 nM)

Question: And the “LTS (long term survivors at 60 days)” value (P 388 leukemia; 2.5 mg/Kg i.p. day 1)?
Answer: 0/10

Question: And the “T/C % (median survival time, % over untreated controls)” value (P 388 leukemia; 2.5 mg/Kg i.p. day 1)?
Answer: 150%

Question: What about the Toxic deaths (P 388 leukemia; 2.5 mg/Kg i.p. day 1) of the same molecule?
Answer: 0/10

Question: And the “LTS (long term survivors at 60 days)” value (P 388 leukemia; 5 mg/Kg i.p. day 1)?
Answer: 0/10

Question: And the “T/C % (median survival time, % over untreated controls)” value (P 388 leukemia; 5 mg/Kg i.p. day 1)?
Answer: 162%

Question: What about the Toxic deaths (P 388 leukemia; 5 mg/Kg i.p. day 1) of the same molecule?
Answer: 0/10

Question: And the “LTS (long term survivors at 60 days)” value (P 388 leukemia; 10 mg/Kg i.p. day 1)?
Answer: 1/10

Question: What about the “T/C % (median survival time, % over untreated controls)” value (P 388 leukemia; 10 mg/Kg i.p. day 1) of the same molecule?
Answer: 200%

Question: And the Toxic deaths (P 388 leukemia; 10 mg/Kg i.p. day 1)?
Answer: 0/10

Question: What about the “LTS (long term survivors)” value (Ascites Sarcoma 180; 4.5 ng/Kg (so in the source)) of the same molecule?
Answer: 1/10

Question: And the “T/C % (average survival time, % of untreated)” value (Ascites Sarcoma 180; 4.5 ng/Kg (so in the source))?
Answer: 250%
